The source of these data is US5059602A, “4-substituted dihydropyrido(4,3-d)pyrimidines as analgesics and topical antiinflammatory agents for the treatment of skin disorders” (Hoechst-Roussel Pharmaceuticals Inc., priority 1990, dated 1991).

Counter-ions that a name gives are not always drawn. Like-named read-outs stand apart in the source and are kept apart here.

Assay [1] has as its system ear edema induced by topical application of TPA (phorbol 12-myristate acetate). The assay can be described thus: TPA-Induced Ear Edema (TPAEE). The format is in vivo, Female Swiss Webster mice. As to conditions: for change in vivo at 10 µg/ear: 5 h, read-out: TPAEE. Here is the method:
TPA-Induced Ear Edema (TPAEE)
The purpose of this assay was to determine the ability of a topically-applied compound to prevent ear edema induced by topical application of TPA (phorbol 12-myristate acetate). Female Swiss Webster mice topically received TPA (10 μg/ear) on the right ear and vehicle on the left ear. The test compound (10 μg/ear) was applied to both ears. After five hours, the animals were sacrificed and an ear punch (4 mm) was taken from each ear. The difference in right and left ear punch weights for each animal was determined to assess activity. […] See Young, J. M. et al., J. Invest. Dermatol., 80 (1983), pp. 48-52.

The test system of assay [2] is 2-phenyl-1,4-benzoquinone-induced writhing. Kind of assay: 2-phenyl-1,4-benzoquinone-induced writhing test (PQW). Format: in vivo, mice. Conditions: Mus musculus, sc, read-out: PQW % Inhibition of writhing.
For assay [3], the system named is naja naja (snake venom) phospholipase A2 -induced paw edema. The assay can be described thus: Phospholipase A2-induced Paw Edema (PIPE). Conditions: 0.1M; rat hindpaw, subplantar injection with PLA2 (3 units/paw), 2 hours. Format: in vivo, male Wistar rats. Here is the method:
Phospholipase A2 -induced Paw Edema (PIPE)
The ability of compounds to prevent naja naja (snake venom) phospholipase A2 -induced paw edema in male Wistar rats (100-125 g) was measured. PLA2 (3 units/paw) alone or with 0.1M of the test compound was injected in the subplantar region of the rat left hindpaw. Immediately subsequent to the injection and at two hours post administration the paw was immersed in a mercury bath, and paw displacement was measured on a recorder via a transducer. […] See Giessler, A. J. et al., Agents and Actions, Vol. 10, Trends in Inflammation Research (1981), p. 195.

Assay [4] relates to mouse ear edema induced by topical application of arachidonic acid. Kind of assay: Arachidonic Acid-Induced Ear Edema (AAEE). Format: in vivo, Female Swiss Webster mice. Conditions: for AAEE: 1.0 mg (per ear), mouse. Here is the method:
Arachidonic Acid-Induced Ear Edema (AAEE)
The purpose of this assay was to determine the ability of a topically-applied compound to prevent mouse ear edema induced by topical application of arachidonic acid. Female Swiss Webster mice topically received vehicle or test compound (1.0 mg/ear) on both ears (10 μl on outer and inner ears). After 30 minutes, the right ear of all groups received arachidonic acid (4 mg/ear) and the left ear received vehicle alone. After an additional 1 hour, the mice were sacrificed and an ear punch (4 mm) was taken from each ear. The difference in right and left ear punch weights for each animal was determined to assess activity. […] See Young, J. M. et al., Invest. Dermatol., 80, (1983), pp 48-52.

Setting [5] is: 10 μg (per ear), mouse, five hours.

As to `CC1c2cnccc2N=CN1Cc1ccccc1` (centres unmarked) [3,4-Dihydro-4-methyl-3-phenylmethylpyrido[4,3-d]pyrimidine dihydrochloride], in assay [1] (Mus musculus), the change in vivo at 10 µg/ear was -55%. Also, in assay [2], the inhibition in vivo at 20 mg/kg amounted to 85%.

As for `Cl.Cl.Nc1ccncc1CNCc1ccccc1` [3-[(Phenylmethylamino)methyl]-4-pyridinamine dihydrochloride], in assay [3], the “PIPE (difference in edema vs. control)” value is -51%.

`CC(NCc1ccccc1)c1cnccc1N` (stereo not drawn) [4-Amino-α-methyl-N-(phenylmethyl)-3-pyridinemethanamine]: in assay [1] (setting [5]), the change in vivo at 10 µg/ear was -45%. The inhibition in vivo at 20 mg/kg in assay [2] (20 mg/kg, s.c.) came out at 58%.

For `C1=NC(C2CCCCC2)c2cnccc2N1.Cl.Cl` (centres unmarked) [4-Cyclohexyl-1,4-dihydropyrido[4,3-d]pyrimidine dihydrochloride], the “PIPE (difference in edema vs. control)” value in assay [3] was -44%.

Take `Nc1ccncc1C(N)c1ccccc1` (centres unmarked) [(4-Amino-3-pyridinyl)benzenemethanamine dihydrochloride]: the “PIPE (difference in edema vs. control)” value in assay [3] was -66%.

Take `Cl.Cl.Nc1ccncc1C(N)C1CCCCC1` (centres unmarked) [(4-Amino-3-pyridinyl)cyclohexylmethanamine dihydrochloride]: the change in vivo at 10 µg/ear in assay [1] (setting [5]) was -36%. The “PIPE (difference in edema vs. control)” value in assay [3] was -68%. The AAEE in assay [4] is reported as -28%.

For the compound `Nc1ccncc1C(=O)C1CCCCC1` [(4-Amino-3-pyridinyl)cyclohexylmethanone hydrochloride], the change in vivo at 10 µg/ear in assay [1] (setting [5]) was -53%.

Consider `Nc1ccncc1C(=NO)C1CCCCC1` [(4-Amino-3-pyridinyl)cyclohexylmethanone oxime hydrochloride], for which, in assay [1] (setting [5]), the change in vivo at 10 µg/ear is -34%.

On to `Nc1ccncc1C(=NO)c1ccccc1` [(4-Amino-3-pyridinyl)phenylmethanone oxime hydrochloride], for which the change in vivo at 10 µg/ear in assay [1] (setting [5]) is -32%.

Turning to `CC(=O)c1cnccc1NC(=O)C(C)(C)C` [N-(3-Acetyl-4-pyridinyl)-2,2-dimethylpropanamide], in assay [2] (20 mg/kg, s.c.), the inhibition in vivo at 20 mg/kg was determined as 34%.

Turning to `CC(NCc1ccccc1)c1cnccc1NC(=O)C(C)(C)C.Cl.Cl` (centres unmarked) [N-[3-[1-(Phenylmethylamino)ethyl]-4-pyridinyl]-2,2-dimethylpropionamide dihydrochloride], the AAEE in assay [4] is reported as -44%.

For the compound `CCCCNCc1cnccc1NC(=O)C(C)(C)C.Cl.Cl` [N-[3-[(Butylamino)methyl]-4-pyridinyl]-2,2-dimethylpropanamide dihydrochloride], the AAEE in assay [4] is -45%.

Consider `C[C@]12CCC(=O)C=C1CC[C@@H]1[C@@H]2[C@@H](O)C[C@@]2(C)[C@H]1CC[C@]2(O)C(=O)CO` [hydrocortisone, reference compound], for which, in assay [1] (standard, TPAEE), the ED50 amounted to 47 μg/ear.

For the compound `COc1ccc2c(c1)c(CC(=O)O)c(C)n2C(=O)c1ccc(Cl)cc1` [indomethacin, reference compound], the ED50 in assay [4] (standard, AAEE) came out at 1.5 mg/ear.

With `CC(C)(C)C(=O)Nc1ccncc1C(O)C1CCCCC1` (stereo not drawn) [α-Cyclohexyl-α-[4-(2,2-dimethylpropionamido)-3-pyridinyl]-methanol], the change in vivo at 10 µg/ear in assay [1] (setting [5]) was -55%. Further, in assay [3], the “PIPE (difference in edema vs. control)” value is listed as -35%. Further, in assay [4], the AAEE was -52%. The inhibition in vivo at 20 mg/kg in assay [2] (20 mg/kg, s.c.) was found to be 32%.

Regarding `CC(O)c1cnccc1NC(=O)C(C)(C)C` (stereo not drawn) [α-Methyl-α-[4-(2,2-dimethylpropionamido)-3-pyridinyl]-methanol], in assay [1] (setting [5]), the change in vivo at 10 µg/ear was -46%.
